Results taken from ChEMBL document CHEMBL1201862, “PubChem BioAssay data set” (2004).
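Following 48 hours of exposure in 96-well plates, responses at five concentrations were used to interpolate endpoints linearly. GI50 = concentration required for 50% inhibition of growth.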 The source made the active and inactive calls. No stated cut-off is given here; in the data, active = GI50 up to about 1.1 µM and inactive = higher.

Assays:
Experiment in all cases: NCI-60 cell line screen, 48 h
Malme-3M = system: Malme-3M
RXF 393 = system: RXF 393
SF-268 = system: SF-268
HOP-62 = system: HOP-62
T47D = system: T47D
COLO 205 = system: COLO 205
SNB-19 = system: SNB-19
NCI-H23 = system: NCI-H23
TK-10 = system: TK-10
M14 = system: M14
OVCAR-4 = system: OVCAR-4
OVCAR-3 = system: OVCAR-3
MCF7 = system: MCF7
MDA-MB-435 = system: MDA-MB-435
NCI-H522 = system: NCI-H522
SF-539 = system: SF-539
EKVX = system: EKVX
IGROV-1 = system: IGROV-1
SNB-75 = system: SNB-75
UACC-62 = system: UACC-62

Measured: GI50

Cc1ccc(N(C)S(=O)(=O)c2ccccc2[N+](=O)[O-])cc1
inactive: Malme-3M 33.2 µM | RXF 393 34.9 µM | SF-268 48.4 µM | HOP-62 49.1 µM | T47D 77.4 µM | COLO 205 57.3 µM | SNB-19 64.9 µM | NCI-H23 40.4 µM | TK-10 > 100 µM | M14 21.6 µM | OVCAR-4 41.7 µM | OVCAR-3 44 µM | MCF7 49 µM | MDA-MB-435 29.2 µM | NCI-H522 24.6 µM | SF-539 40.1 µM | EKVX 55.1 µM

COc1ccc2c(O)c(Oc3ccc(Cl)cc3)c(=O)oc2c1
inactive: Malme-3M 60.7 µM | IGROV-1 60 µM | RXF 393 35.3 µM | SF-268 > 100 µM | SNB-75 99.5 µM | HOP-62 > 100 µM | T47D 55.6 µM | SNB-19 31.4 µM | NCI-H23 > 100 µM | TK-10 78.3 µM | M14 88.9 µM | OVCAR-4 > 100 µM | OVCAR-3 83.9 µM | MCF7 > 100 µM | NCI-H522 > 100 µM | SF-539 > 100 µM | EKVX > 100 µM

C=C1CCCCCCCCCCC12SCCC2CCCCSC (configuration not stated)
inactive: Malme-3M 19.7 µM | IGROV-1 22.5 µM | RXF 393 29.2 µM | SF-268 28.7 µM | HOP-62 20 µM | T47D 17.9 µM | COLO 205 19 µM | UACC-62 27.1 µM | SNB-19 21.8 µM | NCI-H23 25.7 µM | M14 19.9 µM | OVCAR-4 39.8 µM | OVCAR-3 16.7 µM | MCF7 21 µM | MDA-MB-435 26.1 µM | NCI-H522 17.2 µM | SF-539 20.6 µM | EKVX 34.6 µM

O=C(O)C(=Cc1ccnc2ccccc12)C(=O)O
inactive: Malme-3M > 100 µM | IGROV-1 > 100 µM | RXF 393 > 100 µM | SF-268 > 100 µM | SNB-75 > 100 µM | HOP-62 > 100 µM | T47D > 100 µM | COLO 205 > 100 µM | UACC-62 > 100 µM | SNB-19 > 100 µM | NCI-H23 > 100 µM | TK-10 > 100 µM | M14 > 100 µM | OVCAR-3 > 100 µM | MCF7 > 100 µM | NCI-H522 > 100 µM | SF-539 > 100 µM | EKVX > 100 µM

O=C(/C=C/C=C/c1ccccc1)c1ccc2c(c1)CCCC2
inactive: IGROV-1 42.8 µM | SF-268 16.2 µM | HOP-62 91.6 µM | T47D 16 µM | COLO 205 40.4 µM | UACC-62 > 100 µM | SNB-19 97.7 µM | NCI-H23 35 µM | TK-10 73.6 µM | M14 94.2 µM | OVCAR-4 43.7 µM | OVCAR-3 35.6 µM | MCF7 32 µM | MDA-MB-435 18.9 µM | NCI-H522 13.4 µM | SF-539 54.5 µM | EKVX 36.5 µM

O=c1[nH]c2ccccc2c(=O)n1/N=C/c1ccc(O)cc1
inactive: IGROV-1 > 100 µM | SF-268 42.2 µM | SNB-75 41.4 µM | HOP-62 20.9 µM | T47D > 100 µM | COLO 205 > 100 µM | UACC-62 42.4 µM | SNB-19 36 µM | NCI-H23 > 100 µM | TK-10 > 100 µM | M14 > 100 µM | OVCAR-3 > 100 µM | MCF7 > 100 µM | MDA-MB-435 > 100 µM | SF-539 66.5 µM | EKVX > 100 µM

CN(C)CCCn1c(Cc2ccc(Cl)cc2)nc2cc(C(F)(F)F)ccc21
inactive: Malme-3M 11 µM | IGROV-1 13.1 µM | RXF 393 9.06 µM | SF-268 14.1 µM | HOP-62 15.2 µM | T47D 12 µM | COLO 205 10.7 µM | UACC-62 17.3 µM | SNB-19 16.5 µM | NCI-H23 15.8 µM | TK-10 15.3 µM | M14 12.7 µM | OVCAR-4 13.6 µM | OVCAR-3 14.5 µM | MCF7 14.5 µM | MDA-MB-435 12.9 µM | NCI-H522 14.6 µM | SF-539 16.3 µM | EKVX 17.4 µM

O=C1N[C@@H]2O[C@H](CNC(=O)c3cc(Br)c[nH]3)C[C@]2(O)N1.O=C1N[C@H]2O[C@H](CNC(=O)c3cc(Br)c[nH]3)C[C@@]2(O)N1
inactive: Malme-3M > 100 µM | IGROV-1 > 100 µM | SF-268 > 100 µM | SNB-75 > 100 µM | HOP-62 > 100 µM | T47D > 100 µM | COLO 205 > 100 µM | UACC-62 > 100 µM | SNB-19 > 100 µM | NCI-H23 > 100 µM | TK-10 > 100 µM | M14 > 100 µM | OVCAR-4 > 100 µM | OVCAR-3 > 100 µM | MCF7 > 100 µM | MDA-MB-435 > 100 µM | NCI-H522 > 100 µM | SF-539 > 100 µM | EKVX > 100 µM

O=C1c2cc(Br)ccc2-c2ccc3c4ccc5c6c(ccc(c7ccc1c2c73)c64)C(=O)c1cc(Br)ccc1-5
inactive: Malme-3M > 100 µM | IGROV-1 > 100 µM | RXF 393 > 100 µM | SF-268 > 100 µM | HOP-62 > 100 µM | T47D > 100 µM | COLO 205 > 100 µM | UACC-62 > 100 µM | SNB-19 > 100 µM | NCI-H23 > 100 µM | TK-10 > 100 µM | M14 > 100 µM | OVCAR-3 > 100 µM | MCF7 > 100 µM | MDA-MB-435 > 100 µM | NCI-H522 > 100 µM | SF-539 > 100 µM | EKVX > 100 µM

CC(O)C1OC(O)C2OC(C)(C)OC12 (configuration not stated)
inactive: IGROV-1 > 100 µM | SF-268 > 100 µM | SNB-75 > 100 µM | HOP-62 > 100 µM | T47D > 100 µM | COLO 205 > 100 µM | UACC-62 > 100 µM | SNB-19 > 100 µM | NCI-H23 > 100 µM | TK-10 > 100 µM | M14 > 100 µM | OVCAR-4 > 100 µM | OVCAR-3 > 100 µM | MCF7 > 100 µM | MDA-MB-435 > 100 µM | NCI-H522 > 100 µM | SF-539 > 100 µM | EKVX > 100 µM

n1onc2c1NC1Nc3nonc3NC1N2 (configuration not stated)
inactive: IGROV-1 > 100 µM | SF-268 > 100 µM | SNB-75 > 100 µM | HOP-62 > 100 µM | T47D > 100 µM | COLO 205 > 100 µM | SNB-19 27.7 µM | NCI-H23 > 100 µM | TK-10 > 100 µM | M14 > 100 µM | OVCAR-4 > 100 µM | OVCAR-3 > 100 µM | MCF7 > 100 µM | MDA-MB-435 > 100 µM | NCI-H522 > 100 µM | SF-539 > 100 µM | EKVX > 100 µM

NC1=Nc2ncccc2C(=O)NN1
inactive: Malme-3M > 10 µM | IGROV-1 > 10 µM | RXF 393 > 10 µM | SF-268 > 10 µM | SNB-75 > 10 µM | HOP-62 > 10 µM | T47D > 10 µM | UACC-62 > 10 µM | SNB-19 > 10 µM | NCI-H23 > 10 µM | TK-10 > 10 µM | M14 > 10 µM | OVCAR-3 > 10 µM | MCF7 > 10 µM | MDA-MB-435 > 10 µM | SF-539 > 10 µM | EKVX > 10 µM

Cn1c(-c2ccccc2)cc(-c2ccsc2)c1-c1ccsc1
inactive: IGROV-1 > 100 µM | RXF 393 33.3 µM | SF-268 > 100 µM | SNB-75 > 100 µM | HOP-62 49.5 µM | T47D > 100 µM | COLO 205 > 100 µM | UACC-62 > 100 µM | SNB-19 17.2 µM | NCI-H23 > 100 µM | TK-10 > 100 µM | M14 > 100 µM | OVCAR-4 > 100 µM | OVCAR-3 34.3 µM | MCF7 > 100 µM | MDA-MB-435 > 100 µM | SF-539 95.5 µM | EKVX > 100 µM

CC[C@@]1(C[C@H]2C[C@@]3(C(=O)OC)c4[nH]c5ccccc5c4CCN3C2=O)COC2(CCCCC2)O1
inactive: Malme-3M 55.3 µM | IGROV-1 43.9 µM | RXF 393 19.5 µM | SF-268 30.3 µM | SNB-75 46.8 µM | HOP-62 22.3 µM | T47D 29.3 µM | COLO 205 34.4 µM | UACC-62 23.5 µM | SNB-19 12.5 µM | NCI-H23 24.2 µM | TK-10 32.8 µM | M14 37.8 µM | OVCAR-4 58.2 µM | OVCAR-3 51.2 µM | MCF7 25.5 µM | NCI-H522 37.1 µM | SF-539 35.1 µM | EKVX 61.9 µM

CCCCC1Cc2cc(OC)ccc2-c2nc3cc(OC)ccc3n21.CCCCC1Cc2cc(OC)ccc2-c2nc3ccc(OC)cc3n21 (configuration not stated)
inactive: Malme-3M 16 µM | IGROV-1 11.1 µM | RXF 393 17 µM | SF-268 17.6 µM | HOP-62 15.7 µM | T47D 13.1 µM | COLO 205 4.9 µM | UACC-62 12.9 µM | SNB-19 9.73 µM | NCI-H23 14.7 µM | TK-10 18.7 µM | M14 15 µM | OVCAR-4 4.7 µM | OVCAR-3 15 µM | MCF7 17.2 µM | MDA-MB-435 13.2 µM | NCI-H522 7.67 µM | SF-539 16.1 µM | EKVX 12.6 µM
